# Assay results published in patent US5324725A, “7-fused 2-(piperazinoalkyl) indole derivatives, intermediates and compositions thereof” (Kali-Chemie Pharma GmbH, priority 1991, dated 1994).
# Where two headings read alike, the source gives them in different places.
# Assays:
# [1] = Determination of the minimum toxic dose; parameters: species or system male mice; conditions: mouse, in vivo, po, 300 mg/kg, 1440 min
# Procedure: 2. Determination of the minimum toxic dose.
# Maximum doses of 300 mg/kg of the test substance were administered orally to male mice weighing 20-25 g. The animals were observed carefully for 3 hours for toxicity symptoms. In addition, all symptoms and deaths over a period of 24 hours after administration were recorded. Associated symptoms were also observed and recorded. If death or severe toxic symptoms were observed, further mice were administered increasingly lower doses. The lowest dose which caused death or severe toxic symptoms is given as the minimum toxic dose in the following Table B.
# histamine (H1) receptor = target: T1, histamine (H1) receptor (Cavia porcellus, UniProt P31389); assay: Antihistamine (H1) effect: inhibition of histamine-induced contractions of isolated guinea-pig ileum in vitro; type: cell-based, guinea-pig (Dunkin Hartley); conditions: histamine 5 × 10^-6 mol/l, test substance 10^-6 mol/l
# T1 construct: isolated smooth muscle of the guinea-pig ileum; from tissue; host or cells: isolated ileum segments of Dunkin Hartley guinea-pigs
# T1 sequence (P31389 whole entry): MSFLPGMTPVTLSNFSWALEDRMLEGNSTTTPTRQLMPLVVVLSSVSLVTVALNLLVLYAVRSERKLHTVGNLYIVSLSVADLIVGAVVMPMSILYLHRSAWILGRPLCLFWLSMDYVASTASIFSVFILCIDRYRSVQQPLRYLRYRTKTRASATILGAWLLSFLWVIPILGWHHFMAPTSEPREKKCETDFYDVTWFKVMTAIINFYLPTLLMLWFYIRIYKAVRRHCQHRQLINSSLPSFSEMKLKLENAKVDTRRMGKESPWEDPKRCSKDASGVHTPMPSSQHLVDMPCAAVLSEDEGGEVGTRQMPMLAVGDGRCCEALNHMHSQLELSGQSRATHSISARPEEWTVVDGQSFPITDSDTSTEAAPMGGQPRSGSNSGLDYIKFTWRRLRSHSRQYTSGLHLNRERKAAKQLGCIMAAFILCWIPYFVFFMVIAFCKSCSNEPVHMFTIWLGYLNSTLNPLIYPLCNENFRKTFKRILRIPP
# In short: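 Dunkin Hartley guinea-pig ileum segments (300-500 g animals) in Krebs-Henseleit, pH 7.4, 5% CO2/95% O2, 1 g tension, isotonic recording. Compound at 10^-6 mol/l for 30 s before histamine 5×10^-6 mol/l; contraction measured over 30 s, repeated 10 min after washout, expressed as % inhibition.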
# [2] = after 30 sec., read-out: in vitro (H1) receptor antagonism % inhibitory effect on histamine-induced contractions of the Ileum, after 30 sec.
# [3] = after 10 min. (after washing), read-out: in vitro (H1) receptor antagonism % inhibitory effect on histamine-induced contractions of the Ileum, after 10 min.
SMILES,Minimum toxic dose (lowest dose which caused death or severe toxic symptoms) [1] [mg/kg],inhibition at 1 µM (histamine (H1) receptor; [2]) [%],inhibition at 1 µM (histamine (H1) receptor; [3]) [%]
Cc1ccc(N2CCN(CCc3c(C)n4c5c(cccc35)CCC4)CC2)nc1 [Example 42],100,52,54
Cc1ccnc(N2CCN(CCc3c(C)n4c5c(cccc35)C(C)CC4)CC2)c1 (centres unmarked) [Example 57],300,20,80
Cc1ccnc(N2CCN(CCc3c(C)n4c5c(cc(C)cc35)CCC4)CC2)c1 [Example 54],300,8,94
"CCc1c(C(O)CN2CCN(c3cc(C)ccn3)CC2)c2cccc3c2n1CCC3 (centres unmarked) [Example 14, 2-Ethyl-5,6-dihydro-1-{2-[4-(4-methylpyridin-2-yl)piperazin-1-yl]-1-hydroxyethyl}-4H-pyrrolo[3,2,1-ij]quinoline]",300,,
"Cc1ccnc(N2CCN(CCc3cn4c5c(cccc35)CCC4)CC2)c1 [Example 13, 5,6-Dihydro-1-{2-[4-(4-methylpyridin-2-yl)piperazin-1-yl]ethyl}-4H-pyrrolo[3,2,1-ij]quinoline]",100,33,63
"Cc1ccnc(N2CCN(CCc3c(C)n4c5c(cccc35)CCC4c3ccccc3)CC2)c1 (centres unmarked) [Example 3, 5,6-dihydro-2-methyl-4-phenyl-1-{2-[4-(4-methylpyridine-2-yl)piperazin-1-yl]-ethyl}-4H-pyrrolo[3,2,1-ij]quinoline]",300,15,57
Cc1ccnc(N2CCN(CCc3c(C)n4c5c(ccc(Cl)c35)OCC4)CC2)c1 [Example 35],300,25,78
"Cc1ccnc(N2CCN(CCc3c(C)n4c5c(cccc35)SCC4)CC2)c1 [Example 11, 5-Methyl-6-{2-[4-(4-methylpyridin-2-yl)piperazin-1-yl]ethyl}-2,3-dihydro-pyrrolo[1,2,3-de]-1,4-benzo-thiazine]",100,21,84
"Cc1ccnc(N2CCN(CCc3c(C)n4c5c(cccc35)CCC4)CC2)c1 [Example 1, 5,6-Dihydro-2-methyl-1-{2-[4-(4-methylpyridin-2-yl)piperazin-1-yl]ethyl}-4H-pyrrolo[3,2,1-ij]quinoline]",100,42,88
"CCCCC1CCc2cc(C(=O)C(C)C)cc3c(CCN4CCN(c5cc(C)ccn5)CC4)c(C)n1c23 (centres unmarked) [Example 23, 4-n-Butyl-5,6-dihydro-8-(2-methyl-1-oxopropyl)-2-methyl-1-{2-[4-(4-methylpyridin-2-yl)piperazin-1-yl]ethyl}-4H-pyrrolo[3,2,1-ij]quinoline]",,7,38
Cc1ccnc(N2CCN(CCc3c(C)n4c5c(cc(C(=O)c6ccccc6)cc35)CCC4)CC2)c1 [Example 66],,10,71
"Cc1ccnc(N2CCN(CCc3c(CO)n4c5c(cccc35)CCC4)CC2)c1 [Example 16, 5,6-dihydro-2-hydroxymethyl-1-{2-[4-(4-methylpyridin-2-yl)piperazin-1-yl]ethyl}-4H-pyrrolo[3,2,1-ij]quinoline]",,42,55
Cc1ccnc(N2CCN(CCc3c(C)n4c5c(cc(NC(=O)C(C)C)cc35)CCC4)CC2)c1 [Example 60],,9,37
"Cc1ccnc(N2CCN(CCc3c(C)n4c5c(cc(CC(C)C)cc35)CCC4)CC2)c1 [Example 21, 5,6-Dihydro-2-methyl-8-(2-methylpropyl)-1-{2-[4-(4-methylpyridin-2-yl)piperazin-1-yl]ethyl}-4H-pyrrolo[3,2,1-ij]quinoline]",,9,56
"Cc1ccnc(N2CCN(CCc3c(C)n4c5c(cc(C(O)C(C)C)cc35)CCC4)CC2)c1 (centres unmarked) [Example 19, 5,6-Dihydro-8-(1-hydroxy-2-methylpropyl)-2-methyl-1-{2-[4-(4-methylpyridin-2-yl)piperazin-1-yl]ethyl}-4H-pyrrolo-[3,2,1-ij]quinoline]",,26,83
Cc1c(CCN2CCN(c3ccc(Br)cn3)CC2)c2cccc3c2n1CCC3 [Example 43],,11,23
C=CCCC1CCc2cccc3c(CCN4CCN(c5cc(C)ccn5)CC4)c(C)n1c23 (centres unmarked) [Example 62],,13,72
"Cc1ccnc(N2CCN(CCc3c(C)n4c5c(cc(N)cc35)CCC4)CC2)c1 [Example 20, 8-Amino-5,6-dihydro-2-methyl-1-{2-[4-(4-methylpyridin-2-yl)piperazin-1-yl]ethyl}-4H-pyrrolo[3,2,1-ij]quinoline]",,27,77
Cc1cc2c3c(c1)c(CCN1CCC(C(=O)c4ccc(F)cc4)CC1)c(C)n3CCC2 [Example 55],300,,
